Test results as given in ChEMBL document CHEMBL4725391, “Discovery and Optimization of Novel SUCNR1 Inhibitors: Design of Zwitterionic Derivatives with a Salt Bridge for the Improvement of Oral Exposure” (J Med Chem, 2020).
Activity calls are given as the source filed them. No cut-off for these calls is given here.

Key:
Succinate receptor 1 = molecular target: T1, Succinate receptor 1 (Homo sapiens, UniProt Q9BXA5); experiment: Antagonist activity at human SUCNR1 expressed in human CHEM1 cells incubated for 60 mins in presence of [35S]GTPgammaS by scintillation proximity assay; assay type: functional, cell-based, Chem-1
T1 sequence (Q9BXA5 whole entry): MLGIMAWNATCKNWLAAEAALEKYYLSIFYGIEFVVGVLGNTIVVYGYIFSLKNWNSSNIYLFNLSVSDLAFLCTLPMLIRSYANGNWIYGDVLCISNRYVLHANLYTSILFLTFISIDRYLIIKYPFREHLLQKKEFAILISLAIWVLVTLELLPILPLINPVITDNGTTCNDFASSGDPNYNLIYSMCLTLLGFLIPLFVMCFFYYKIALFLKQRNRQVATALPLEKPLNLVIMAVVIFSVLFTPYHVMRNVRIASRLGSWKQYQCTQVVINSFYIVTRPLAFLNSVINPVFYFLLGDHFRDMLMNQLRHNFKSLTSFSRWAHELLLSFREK

[1] = Octanol-water distribution coefficient, log D of the compound by shake flask method; assay type: physicochemical
[2] = Permeability of compound by PAMPA assay; assay type: ADME
[3] = Protein binding in human plasma at 5 uM incubated for 4 hrs by LC-MS/MS analysis; assay type: ADME, cell-free; conditions: read-out: PPB (converted)
Coagulation factor XI = Coagulation factor XI (Homo sapiens, UniProt P03951); experiment: Inhibition of human factor 11a by TR-FRET assay
Complement factor D = Complement factor D (Homo sapiens, UniProt P00746); experiment: Inhibition of recombinant human CFD expressed in Escherichia coli incubated up to 2 hrs by TR-FRET assay
[4] = Protein binding in C57BL/6 mouse plasma at 5 uM incubated for 4 hrs by LC-MS/MS analysis; assay type: ADME, cell-free; conditions: read-out: PPB (converted)
[5] = Ionization constant (base), pKa of the compound; assay type: physicochemical
[6] = Ionization constant (acid), pKa of the compound by UV metric assay; assay type: physicochemical
[7] = Dose normalized AUC in C57BL/6 mouse at 3 mg/kg, po measured after 0.25 to 24 hrs by LC-MS/MS analysis; assay type: ADME, organism-based; conditions: in vivo, time 0.25-24 hrs
[8] = Oral bioavailability in C57BL/6 mouse measured after 0.25 to 24 hrs by LC-MS/MS analysis; assay type: ADME, organism-based; conditions: in vivo, time 0.25-24 hrs
[9] = molecular target: T2, Succinate receptor 1 (Mus musculus) (UniProt Q99MT6); experiment: Antagonist activity at mouse SUCNR1 100 uM
T2 sequence (whole entry): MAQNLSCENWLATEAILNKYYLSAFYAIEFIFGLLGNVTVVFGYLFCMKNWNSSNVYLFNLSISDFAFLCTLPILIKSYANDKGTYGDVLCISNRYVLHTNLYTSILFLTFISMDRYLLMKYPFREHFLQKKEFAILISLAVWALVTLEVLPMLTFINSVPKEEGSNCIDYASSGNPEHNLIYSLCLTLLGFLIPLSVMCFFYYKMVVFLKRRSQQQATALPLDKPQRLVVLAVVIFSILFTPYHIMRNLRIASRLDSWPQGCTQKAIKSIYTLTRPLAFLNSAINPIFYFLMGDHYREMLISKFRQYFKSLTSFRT

[10] = Clearance in C57BL/6 mouse at 1 mg/kg, iv administered as bolus dose measured after 0.083 to 24 hrs by LC-MS/MS analysis; assay type: ADME, organism-based; conditions: in vivo, time 0.083-24 hrs
[11] = molecular target: T3, Succinate receptor 1 (Rattus norvegicus) (UniProt Q6IYF9); experiment: Antagonist activity at rat SUCNR1 expressed in CHO-K1 cell membranes at 100 uM incubated for 60 mins in presence of [35S]GTPgammaS by scintillation proximity assay relative to control; assay type: functional; conditions: filed as antagonist
T3 sequence (whole entry): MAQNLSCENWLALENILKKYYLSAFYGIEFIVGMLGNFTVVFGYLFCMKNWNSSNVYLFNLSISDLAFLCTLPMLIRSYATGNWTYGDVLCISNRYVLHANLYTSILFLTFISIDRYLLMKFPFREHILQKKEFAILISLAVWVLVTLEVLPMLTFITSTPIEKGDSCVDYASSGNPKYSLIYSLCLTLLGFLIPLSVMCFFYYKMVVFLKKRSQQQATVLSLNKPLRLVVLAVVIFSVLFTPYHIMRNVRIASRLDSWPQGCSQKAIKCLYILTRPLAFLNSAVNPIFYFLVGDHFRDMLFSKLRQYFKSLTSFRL

[12] = molecular target: T4, Succinate receptor 1 (Homo sapiens) (UniProt Q9BXA5); experiment: Antagonist activity at human SUCNR1 expressed in human CHEM1 cell membranes at 100 uM incubated for 60 mins in presence of [35S]GTPgammaS by scintillation proximity assay; assay type: functional; conditions: Chem-1
T4 sequence (whole entry): T1 sequence (Q9BXA5 whole entry)

[13] = Dose normalized AUC in C57BL/6 mouse at 10 mg/kg, po measured after 0.25 to 24 hrs by LC-MS/MS analysis; assay type: ADME, organism-based; conditions: in vivo, time 0.25-24 hrs
[14] = Intrinsic clearance in rat liver microsomes; assay type: ADME, Microsome; conditions: read-out: CLH
[15] = Oral bioavailability in C57BL/6 mouse at 10 mg/kg measured after 0.25 to 24 hrs by LC-MS/MS analysis; assay type: ADME, organism-based; conditions: in vivo, time 0.25-24 hrs

Chain of Coagulation factor XI (P03951 19-387 limits assumed): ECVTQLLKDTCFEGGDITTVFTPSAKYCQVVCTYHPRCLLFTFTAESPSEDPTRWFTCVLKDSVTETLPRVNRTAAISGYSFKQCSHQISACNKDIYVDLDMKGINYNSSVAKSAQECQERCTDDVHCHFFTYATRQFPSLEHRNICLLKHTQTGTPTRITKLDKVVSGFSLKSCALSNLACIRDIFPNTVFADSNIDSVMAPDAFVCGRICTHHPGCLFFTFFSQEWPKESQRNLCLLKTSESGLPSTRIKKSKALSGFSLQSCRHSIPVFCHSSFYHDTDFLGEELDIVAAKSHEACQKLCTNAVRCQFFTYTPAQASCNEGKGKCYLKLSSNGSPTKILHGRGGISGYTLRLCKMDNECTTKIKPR
Chain of Coagulation factor XI (P03951 388-625 limits assumed): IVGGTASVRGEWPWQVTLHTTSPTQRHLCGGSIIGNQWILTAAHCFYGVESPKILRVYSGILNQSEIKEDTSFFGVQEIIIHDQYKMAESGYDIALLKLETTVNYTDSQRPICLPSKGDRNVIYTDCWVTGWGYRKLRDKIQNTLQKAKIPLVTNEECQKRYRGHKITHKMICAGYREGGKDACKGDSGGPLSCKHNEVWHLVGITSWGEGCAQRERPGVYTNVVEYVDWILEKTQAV
Chain of Complement factor D (P00746 whole entry): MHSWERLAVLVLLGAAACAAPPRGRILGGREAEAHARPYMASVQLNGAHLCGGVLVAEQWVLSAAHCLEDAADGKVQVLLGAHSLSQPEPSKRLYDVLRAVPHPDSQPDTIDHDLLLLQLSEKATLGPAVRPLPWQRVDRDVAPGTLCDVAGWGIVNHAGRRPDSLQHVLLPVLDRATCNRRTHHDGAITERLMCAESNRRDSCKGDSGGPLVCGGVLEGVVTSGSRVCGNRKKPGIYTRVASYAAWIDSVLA

IC50 (Succinate receptor 1) | logD [1] | log(permeability) [2] | Compound | also measured
0.52 µM | 3.6 | -4.4 | O=C(O)Cc1ccccc1NC(=O)c1cccc(-c2ccc(Cl)c(OC3CCCNC3)c2)c1 (configuration not stated) | pKa [5]: 9.4; pKa [6]: 4.1
 | 2.8 | -5.3 | O=C(O)Cc1ccccc1NC(=O)c1cccc(-c2ccc(Cl)c(OC3CCNC3)c2)c1 (configuration not stated) | 
 |  | -5 | O=C(O)Cc1ccccc1NC(=O)c1cccc(-c2ccc(Cl)c(O[C@@H]3CCCNC3)c2F)c1 | AUC/dose [7]: 2353 nmol·h/L; bioavailability [8]: 81%; clearance [10]: 12 mL/min/kg
 |  | -5.3 | O=C(O)Cc1ccccc1NC(=O)c1cccc(-c2ccc(Cl)c(O[C@@H]3CCCNC3)c2)c1F | fraction unbound at 4 h, 5 µM [4]: 0.026; AUC/dose [7]: 1437 nmol·h/L; bioavailability [8]: 46%; clearance [10]: 11 mL/min/kg; fraction unbound at 4 h, 5 µM [3]: 0.04
 | 2.6 | -5.2 | O=C(O)Cc1ccccc1NC(=O)c1cccc(-c2ccc(Cl)c(OC3CNC3)c2)c1 | 
0.14 µM | 2.5 | -5.4 | O=C(O)Cc1ccccc1NC(=O)c1cccc(-c2ccc(Cl)c(OC3CCNCC3)c2)c1 | pKa [5]: 9.9; pKa [6]: 4.1
 | 2.8 | -5.4 | NCCOc1cc(-c2cccc(C(=O)Nc3ccccc3CC(=O)O)c2)ccc1Cl | 

The remaining lines, values behind:

Compound | IC50 (Succinate receptor 1) | logD [1] | log(permeability) [2] | also measured
O=C(O)Cc1ccccc1NC(=O)c1cccc(-c2ccc(Cl)cc2)c1 | 1.3 µM | 1.9 | -3.8 | fraction unbound at 4 h, 5 µM [3]: < 0.01
NCc1cc(-c2cccc(C(=O)Nc3ccccc3CC(=O)O)c2)ccc1Cl | 0.3 µM | 2.1 | -5.3 | IC50 (Coagulation factor XI): 5.8 µM; IC50 (Complement factor D): > 100 µM; fraction unbound at 4 h, 5 µM [3]: 0.021
O=C(O)Cc1ccccc1NC(=O)c1cccc(-c2ccc(Cl)c(O[C@H]3CCCNC3)c2)c1F |  |  |  | fraction unbound at 4 h, 5 µM [4]: 0.003; fraction unbound at 4 h, 5 µM [3]: 0.014
CN1CCN(Cc2ccc(-c3cccc(C(=O)Nc4ccccc4CC(=O)O)c3)cc2)CC1 |  | 0.5 | -5.5 | 
O=C(O)C[C@H](NC(=O)c1cccc(-c2ccc(Cl)cc2)c1)c1cccnc1 | 12 µM | 1.3 | -5.3 | 
O=C(O)Cc1cc(F)ccc1NC(=O)c1cccc(-c2cc(O[C@@H]3CCCNC3)c(Cl)cc2F)c1F | 0.088 µM |  | -5.1 | AUC/dose [7]: 37000 nmol·h/L; bioavailability [8]: 74%; inhibition [9]: 23%; clearance [10]: 0.6 mL/min/kg; inhibition [11]: 56%
O=C(O)C[C@@H](NC(=O)c1cccc(-c2ccc(Cl)cc2)c1)c1cccnc1 |  |  |  | inhibition [12]: inactive
O=C(O)Cc1cc(F)ccc1NC(=O)c1cccc(-c2cc(O[C@@H]3CCCNC3)c(Cl)cc2F)c1 |  |  | -4.4 | AUC/dose [7]: 5737 nmol·h/L; bioavailability [8]: 137%; clearance [10]: 8 mL/min/kg
O=C(O)Cc1ccccc1NC(=O)c1cccc(-c2ccc(Cl)cc2)c1F |  | 1.4 | -3.6 | AUC/dose [7]: 7814 nmol·h/L; bioavailability [8]: 95%; clearance [10]: 10 mL/min/kg
NCc1cccc(-c2cccc(C(=O)Nc3ccccc3CC(=O)O)c2)c1 | 27 µM |  | < -5.3 | pKa [5]: 9.5; AUC/dose [13]: 206 nmol·h/L; pKa [6]: 4
O=C(O)CC(NC(=O)c1cccc(-c2ccc(Cl)cc2)c1)c1cccnc1 (configuration not stated) | 32 µM | 0.9 | -5.3 | microsomal CLint [14]: 25 µL/min/mg
O=C(Nc1ccccc1C(=O)O)c1cccc(-c2ccc(Cl)cc2)c1 | 23 µM | 3 | -3.7 | 
O=C(O)Cc1cc(F)ccc1NC(=O)c1cccc(-c2ccc(Cl)c(O[C@@H]3CCCNC3)c2F)c1 |  |  | -4.9 | AUC/dose [7]: 26100 nmol·h/L; bioavailability [8]: 93%; clearance [10]: 1.2 mL/min/kg
NCc1cccc(-c2cccc(COc3ccccc3CC(=O)O)c2)c1 | > 100 µM |  | -4.5 | bioavailability [15]: > 100%; pKa [5]: 9.4; AUC/dose [13]: 3646 nmol·h/L; pKa [6]: 4.4
